From ChEMBL document CHEMBL1156829 (Proc Natl Acad Sci U S A, 2008)

How the values were obtained:
Plasmodium falciparum [1] = experiment: NOVARTIS: Inhibition of Plasmodium falciparum 3D7 (drug-susceptible) proliferation in erythrocyte-based infection assay; type: functional, organism-based; settings: Plasmodium falciparum, 3D7
[2] = NOVARTIS: Cytotoxicity against human hepatocellular carcinoma cell line (Huh7); type: toxicity, cell-based, Huh-7; settings: Huh7 cells (hepatocellular carcinoma cell line)
Plasmodium falciparum [3] = experiment: NOVARTIS: Inhibition of Plasmodium falciparum W2 (drug-resistant) proliferation in erythrocyte-based infection assay; type: functional, organism-based; settings: Plasmodium falciparum, W2; read-out: EC50

Compound	EC50 (Plasmodium falciparum [1]) [nM]	CC50 [2] [nM]	EC50 (Plasmodium falciparum [3]) [nM]
CN(CCCNc1ccnc2cc(Cl)ccc12)C(=O)c1cccc(Cl)c1	269	7340	202
O=S(=O)(/C=C/c1ccccc1)NCCCCNc1ccnc2cc(Cl)ccc12	405	1480	397
CN(C)CCNc1ncc(C(=O)NCc2ccccc2)c(NCCc2ccccc2)n1	475	> 10000	361
Cc1cc(-c2ccc(O)c(CN3CCCCCC3)c2)c2ccccc2n1	1120	55900	345
Cc1cc(-c2ccc(O)c(CN3CCCCC3CO)c2)c2ccccc2n1 (stereo not given)	361	59100	57.7
CC(NC(=S)N(Cc1ccco1)Cc1cc2cc3c(cc2[nH]c1=O)OCO3)c1ccccc1 (stereo not given)	1370	> 100000	405
O=C(NC(CN1CCCC1)c1ccccc1)C1CCCCN1S(=O)(=O)c1ccccc1 (stereo not given)	632	> 10000	1260
C#CCN1c2ccccc2Sc2cccnc21	50.4	36400	321
CC(C)c1cccc(C(C)C)c1NC(=O)N(Cc1ccccc1)C(C)c1nc2ccccc2c(=O)n1-c1ccc(Br)cc1 (stereo not given)	1320	> 10000	28
COc1cc(C(C(=O)NCc2ccccc2)N(C(=O)c2snc(C(N)=O)c2N)c2ccc(C(C)C)cc2)cc(OC)c1OC (stereo not given)	2450	> 100000	1290
C=CC1CN2CCC1C(C(O)c1ccnc3ccc(OC)cc13)C2 (stereo not given)	7.21	> 100000	15.1
Cc1ccc(NC(=O)c2sc3nc4c(c(-c5cccs5)c3c2N)CCCC4)cc1	442	> 100000	2220
CCOc1ccc(Nc2cc(C)nc(Nc3ccc(OCC)cc3)n2)cc1	104	9850	124
Cc1ccc(-c2cc3nc4c(c(O)n3n2)CCCC4)cc1	1600	> 100000	2100
Cc1ccccc1NC(c1cccc(Cl)c1)c1nnnn1C1CCCCC1 (stereo not given)	> 1720	> 10000	> 1070
CCc1ccc2[nH]c(=O)c(CN(CCCN(CC)CC)C(=S)NCCCN(C)C)cc2c1	2040	> 100000	664
C=CC[N+]1(CC#Cc2cccc3ccccc23)CCCCC1	683	> 100000	396
O=C(O)CC12CC3CC(C1)CC(c1ccc([N+](=O)[O-])cc1)(C3)C2	> 883	> 10000	> 1250
Cc1nc2cc(-c3ccc(F)cc3)nn2c(NCCCn2ccnc2)c1C	990	> 10000	776
COc1ccccc1Nc1nc(NCc2ccccc2)c2ccccc2n1	312	19600	212
Cc1cc(Nc2ccc(Cl)cc2)n2nnnc2n1	> 1640	> 10000	1750
COc1ccc(-c2c[n+](CC(=O)c3ccc(Cl)cc3)c3n2CCC3)cc1	641	> 100000	150
c1ccc(-c2ccnc3c2ccc2c(-c4ccccc4)ccnc23)cc1	329	> 100000	430
CC1CC(C)CN(c2ccc([N+](=O)[O-])cc2-c2nnn[nH]2)C1 (stereo not given)	> 831	> 10000	> 1610

Compound	EC50 (Plasmodium falciparum [1]) [nM]	CC50 [2] [nM]	EC50 (Plasmodium falciparum [3]) [nM]
COc1cc(NC(C)CCCN(Cc2ccc(F)cc2)C(=O)Nc2ccc(Br)cc2)c2ncccc2c1 (stereo not given)	927	4240	691
Cc1cc(C)cc(NC2=C(c3ccccc3)C(=O)c3ccccc32)c1	1830	> 100000	1530
Cc1ccc(F)cc1NC(=O)Cn1c2ccccc2c(=O)c2cc(Cl)ccc21	1180	> 100000	694
CN1CCN(c2nc(NN=Cc3cc(Br)c(O)cc3O)nc(Nc3ccc([N+](=O)[O-])cc3)n2)CC1	321	> 10000	104
COc1ccc(/C=C2/SC(=Nc3ccccc3)NC2=O)cc1	292	> 100000	332
Cc1cc(C)cc(NCC(O)Cn2c3ccc(Cl)cc3c3cc(Cl)ccc32)c1 (stereo not given)	2220	31200	569
O=C1/C(=C/c2ccccc2)Oc2c1ccc(O)c2CN1CCCCC1	> 1250	> 10000	1260
O=C(Cn1c2ccccc2c(=O)c2cc([N+](=O)[O-])ccc21)Nc1cccc(Cl)c1	> 880	> 10000	> 1250
CCC1=[N+](C)c2cccc3cccc(c23)N1C	958	> 100000	739
CN(C)c1ccc2c(c1)Sc1cc(N(C)C)ccc1N2C(=O)c1ccccc1	218	> 100000	232
CCOC(=O)c1ccc(Nc2nc(N)c3cc(OC)c(OC)cc3n2)cc1	482	> 100000	200
Cc1ccc2c(c1)c(-c1ccccc1)c(-c1ccccc1)n2CC(O)CN1CCN(Cc2ccccc2)CC1 (stereo not given)	824	> 100000	84.5
N#Cc1ccccc1N1CCCCC1	> 10800	> 100000	1790
COc1cc(NC(=O)/C=C/c2ccccc2Cl)cc(OC)c1OC	862	> 10000	1060
CCCCn1c(=N)n(CC(O)c2ccc(Br)cc2)c2ccccc21 (stereo not given)	466	22500	141
C=CCN1/C(=C/C=C/c2sc3ccccc3[n+]2CC=C)Sc2ccccc21	2030	> 10000	292
CN1C2CCC1/C(=C\c1ccsc1)C(=O)/C2=C\c1ccsc1	> 1300	> 10000	> 1190
COc1ccc(OC)c(-c2ccc(O)c(CNCC(C)c3ccccc3)c2)c1 (stereo not given)	960	> 10000	672
CC(C)c1cccc(C(C)C)c1NC(=O)N(Cc1ccccc1)C(C)c1nc2ccccc2c(=O)n1-c1ccccc1 (stereo not given)	1310	> 10000	738
CCCCCCCCNC(=O)C1CC1c1ccccc1 (stereo not given)	> 10500	> 100000	3490
CCN1CCCC1CNc1[nH]cnc2c3cc(F)ccc3nc1-2 (stereo not given)	808	22400	1260
COC(=O)C1CCCCN1S(=O)(=O)c1ccc(C)cc1 (stereo not given)	> 1250	> 10000	> 1120
COc1cc(CN(CC[C@H](c2ccccc2)c2c(O)ccc3ccccc23)Cc2ccccc2)cc(OC)c1	702	> 10000	75.4
COc1cc(C(=O)NC(c2cccs2)c2cc(Cl)c3cccnc3c2O)cc(OC)c1OC (stereo not given)	1490	> 100000	1230

Compound	EC50 (Plasmodium falciparum [1]) [nM]	CC50 [2] [nM]	EC50 (Plasmodium falciparum [3]) [nM]
O=C(O)Cn1cnc2nc3n(c2c1=O)CCC3	> 10400	> 100000	2420
COc1cc(OC)c(NC(=O)c2ccc(N3CC4CC(C3)c3cccc(=O)n3C4)c([N+](=O)[O-])c2)cc1Cl (stereo not given)	9690	> 100000	1930
CCCCCNC(=O)C1CSC(c2ccoc2)N1C(=O)c1ccccc1Cl (stereo not given)	2320	> 100000	1060
C=CCSc1nc2sc3c(c2c(=O)n1-c1ccccc1)CCN(CCC)C3	634	> 100000	847
c1ccc(Oc2cccc(CN3CCc4nc(N5CCCCC5)sc4C3)c2)cc1	294	> 10000	173
C=CCN1C(=O)/C(=C\c2ccccc2)C(C(=O)OC)=C1C	589	> 10000	262
COc1ccc(/C=C2\N=C(c3ccc(Cl)cc3)N(c3ccccc3)C2=O)cc1OC	> 1250	> 10000	> 1150
CCOC(=O)c1c(CSc2ccccc2)oc2cc(CN(C)C)c(O)c(Cl)c12	321	61600	210
CC(C)(C)CC(C)(C)Nc1c(-c2ccccc2OC(=O)C(c2ccccc2)c2ccccc2)nc2ccccn12	882	2150	36.5
CCCCCCc1cc(O)c2c3c(c(=O)oc2c1)CCC(C)C3 (stereo not given)	364	> 100000	297
CC(C)C1Oc2cc3oc(=O)ccc3cc2C1=NO (stereo not given)	> 1150	> 10000	743
Clc1ccc2c(c1)c1cc(Cl)ccc1n2CC1CO1 (stereo not given)	341	57400	277
Cn1c(SCCCCNC(=O)c2cc([N+](=O)[O-])cc([N+](=O)[O-])c2)nc(-c2ccccc2)c1-c1ccccc1	1410	> 8570	33.7
CCOC(=O)c1cc(-c2ccccc2)n(CCC(=O)Nc2ccccc2N2CCN(C)CC2)c1C	794	17300	336
CCN1CCN(Cc2ccc(N(CC)CC)cc2)CC1	> 12500	> 100000	3080
Fc1ccc(CNc2ccnc3cc(Cl)ccc23)cc1	808	> 10000	> 881
CCN(c1ccc(F)cc1)S(=O)(=O)c1ccc2[nH]cc(C(=O)NC(C)(C)C)c(=O)c2c1	> 1600	> 10000	830
OC(c1cc(C(F)(F)F)nc2c(C(F)(F)F)cccc12)C1CCCCN1 (stereo not given) [MEFLOQUINE]	24.8	18800	8.14
CS(=O)(=O)c1cnc2ncnn2c1C1CCCN(C(=O)c2ccccn2)C1 (stereo not given)	311	> 10000	> 1250
Nc1nc(N)c2c(Oc3ccccc3)cccc2n1	448	> 10000	26.7
CN(Cc1ccccc1)c1nc2c(c(=O)[nH]c(=O)n2C)n1CCCSc1ncccn1	> 12500	> 100000	5190
CCOC(=O)c1cnc2ccc(C)cc2c1NCCCN1CCOCC1	900	> 100000	827
